Measurements: ChEMBL document CHEMBL5321287, “Discovery, Synthesis, and Evaluation of Novel Dual Inhibitors of a Vascular Endothelial Growth Factor Receptor and Poly(ADP-Ribose) Polymerase for BRCA Wild-Type Breast Cancer Therapy” (J Med Chem, 2023)
Blank lines part the entries; values can stand above or below the molecule they belong to. The source made the active and inactive calls. No cut-off for these calls is given here.

Tests used:
[1] = biological target: Vascular endothelial growth factor receptor 2 (Homo sapiens, UniProt P35968); assay: Inhibition of VEGFR2 (unknown origin) by Z'-Lyte kinase assay
MDA-MB-231 [2] = assay: Antiproliferative activity against human MDA-MB-231 cells assessed as cell growth inhibition
[3] = biological target: T1, Poly [ADP-ribose] polymerase 1 (Homo sapiens, UniProt P09874); assay: Inhibition of PARP1 (unknown origin)
MCF7 [4] = assay: Antiproliferative activity against human MCF7 cells assessed as cell growth inhibition
MDA-MB-436 [5] = assay: Antiproliferative activity against human MDA-MB-436 cells assessed as cell growth inhibition
MDA-MB-231 [6] = assay: cells; details: Homo sapiens
MCF7 [7] = assay: cells; details: Homo sapiens
HUVEC = assay: cells; details: Homo sapiens, 48 h
MDA-MB-436 [8] = assay: cells; details: Homo sapiens
HCC1937 [9] = assay: cells; details: Homo sapiens
HCC1937 [10] = assay: Antiproliferative activity against human HCC1937 cells assessed as cell growth inhibition
[11] = biological target: T1, Poly [ADP-ribose] polymerase 1; details: MDA-MB-231, dose 50.0 mg/kg, route po, time 14.0 day
[12] = Clearance in Sprague-Dawley rat at 1 mg/kg, iv by LC-MS analysis; type: ADME, organism-based; details: in vivo
[13] = biological target: Serine/threonine-protein kinase 16 (Homo sapiens, UniProt O75716); assay: Inhibition of MPSK1 (unknown origin) by Z'-Lyte kinase assay
[14] = Half life in Sprague-Dawley rat at 10 mg/kg, po via gavage by LC-MS analysis; type: ADME, organism-based; details: in vivo
[15] = AUC (0 to t) in Sprague-Dawley rat at 1 mg/kg, iv by LC-MS analysis; type: ADME, organism-based; parameters: dose 1 mg/kg, route iv; details: in vivo
[16] = Toxicity in BALB/c nude mouse xenografted with human MDA-MB-231 cells assessed as damage in spleen at 25 to 50 mg/kg, po for 14 days; type: organism-based; details: in vivo, 336 h, dose 25-50 mg/kg, time 14 day
[17] = biological target: Poly [ADP-ribose] polymerase 2 (Homo sapiens, UniProt Q9UGN5); assay: Inhibition of PARP2 (unknown origin)
[18] = Toxicity in BALB/c nude mouse xenografted with human MDA-MB-231 cells assessed as change in body weight at 25 to 50 mg/kg, po for 14 days; type: organism-based; details: in vivo, 336 h, dose 25-50 mg/kg, time 14 day
[19] = biological target: T2, Serine/threonine-protein kinase TAO2 (Homo sapiens, UniProt Q9UL54); assay: Inhibition of TAO2 (unknown origin) by Z'-Lyte kinase assay
T2 sequence (Q9UL54 whole entry): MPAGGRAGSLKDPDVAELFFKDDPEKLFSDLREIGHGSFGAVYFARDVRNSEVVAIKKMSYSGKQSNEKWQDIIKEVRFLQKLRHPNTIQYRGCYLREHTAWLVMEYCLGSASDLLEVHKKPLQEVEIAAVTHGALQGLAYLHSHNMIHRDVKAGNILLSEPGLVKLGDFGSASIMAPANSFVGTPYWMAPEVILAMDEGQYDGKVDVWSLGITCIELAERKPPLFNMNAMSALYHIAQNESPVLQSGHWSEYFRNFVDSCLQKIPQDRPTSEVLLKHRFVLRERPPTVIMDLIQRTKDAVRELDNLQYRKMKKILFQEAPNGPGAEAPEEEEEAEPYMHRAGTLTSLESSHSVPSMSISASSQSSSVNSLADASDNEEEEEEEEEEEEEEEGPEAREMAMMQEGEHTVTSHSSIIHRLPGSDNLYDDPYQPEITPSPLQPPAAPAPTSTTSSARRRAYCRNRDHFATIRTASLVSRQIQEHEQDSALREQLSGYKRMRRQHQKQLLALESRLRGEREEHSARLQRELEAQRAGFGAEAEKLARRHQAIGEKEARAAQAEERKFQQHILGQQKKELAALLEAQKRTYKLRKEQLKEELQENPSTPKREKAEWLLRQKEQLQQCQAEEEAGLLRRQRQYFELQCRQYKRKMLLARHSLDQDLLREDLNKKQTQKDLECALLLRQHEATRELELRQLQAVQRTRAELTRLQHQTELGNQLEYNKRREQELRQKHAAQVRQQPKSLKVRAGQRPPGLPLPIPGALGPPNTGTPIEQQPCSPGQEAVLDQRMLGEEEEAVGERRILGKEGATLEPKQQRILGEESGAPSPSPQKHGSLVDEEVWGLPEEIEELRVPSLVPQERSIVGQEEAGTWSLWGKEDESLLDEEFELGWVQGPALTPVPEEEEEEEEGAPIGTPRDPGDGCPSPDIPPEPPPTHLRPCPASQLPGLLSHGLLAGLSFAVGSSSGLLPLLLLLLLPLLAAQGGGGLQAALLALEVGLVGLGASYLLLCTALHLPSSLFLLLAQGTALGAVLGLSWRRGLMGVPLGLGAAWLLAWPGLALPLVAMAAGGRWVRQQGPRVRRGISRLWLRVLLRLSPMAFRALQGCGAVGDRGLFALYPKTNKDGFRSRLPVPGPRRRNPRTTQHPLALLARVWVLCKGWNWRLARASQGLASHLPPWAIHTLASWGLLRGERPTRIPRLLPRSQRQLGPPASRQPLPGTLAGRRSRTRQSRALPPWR

[20] = biological target: Mitogen-activated protein kinase kinase kinase 11 (Homo sapiens, UniProt Q16584); assay: Inhibition of MLK3 (unknown origin) by Z'-Lyte kinase assay
[21] = biological target: Macrophage colony-stimulating factor 1 receptor (Homo sapiens, UniProt P07333); assay: Inhibition of FMS (unknown origin) by Z'-Lyte kinase assay
[22] = Toxicity in BALB/c nude mouse xenografted with human MDA-MB-231 cells assessed as damage in heart at 25 to 50 mg/kg, po for 14 days; type: organism-based; details: in vivo, 336 h, dose 25-50 mg/kg, time 14 day
[23] = Toxicity in BALB/c nude mouse xenografted with human MDA-MB-231 cells assessed as damage in lungs at 25 to 50 mg/kg, po for 14 days; type: organism-based; details: in vivo, 336 h, dose 25-50 mg/kg, time 14 day
[24] = Oral bioavailability in Sprague-Dawley rat at 10 mg/kg administered via gavage by LC-MS analysis; type: ADME, organism-based; details: in vivo
[25] = AUC (0 to t) in Sprague-Dawley rat at 10 mg/kg, po via gavage by LC-MS analysis; type: ADME, organism-based; parameters: dose 10 mg/kg, route po; details: in vivo
[26] = biological target: Vascular endothelial growth factor receptor 3 (Homo sapiens, UniProt P35916); assay: Inhibition of VEGFR3 (unknown origin) by Z'-Lyte kinase assay
[27] = Toxicity in BALB/c nude mouse xenografted with human MDA-MB-231 cells assessed as damage in kidney at 25 to 50 mg/kg, po for 14 days; type: organism-based; details: in vivo, 336 h, dose 25-50 mg/kg, time 14 day
[28] = Apparent volume of distribution in Sprague-Dawley rat at 1 mg/kg, iv by LC-MS analysis; type: ADME, organism-based; details: in vivo, read-out: Vz
[29] = Cmax in Sprague-Dawley rat at 1 mg/kg, iv by LC-MS analysis; type: ADME, organism-based; parameters: dose 1 mg/kg, route iv; details: in vivo
[30] = Half life in Sprague-Dawley rat at 1 mg/kg, iv by LC-MS analysis; type: ADME, organism-based; details: in vivo
[31] = Cmax in Sprague-Dawley rat at 10 mg/kg, po via gavage by LC-MS analysis; type: ADME, organism-based; parameters: dose 10 mg/kg, route po; details: in vivo
[32] = biological target: Vascular endothelial growth factor receptor 1 (Homo sapiens, UniProt P17948); assay: Inhibition of VEGFR1 (unknown origin) by Z'-Lyte kinase assay
[33] = Toxicity in BALB/c nude mouse xenografted with human MDA-MB-231 cells assessed as damage in liver at 25 to 50 mg/kg, po for 14 days; type: organism-based; details: in vivo, 336 h, dose 25-50 mg/kg, time 14 day
[34] = AUC (0 to infinity) in Sprague-Dawley rat at 1 mg/kg, iv by LC-MS analysis; type: ADME, organism-based; parameters: dose 1 mg/kg, route iv; details: in vivo
[35] = AUC (0 to infinity) in Sprague-Dawley rat at 10 mg/kg, po via gavage by LC-MS analysis; type: ADME, organism-based; parameters: dose 10 mg/kg, route po; details: in vivo

Vascular endothelial growth factor receptor 2, sequence (P35968 whole entry): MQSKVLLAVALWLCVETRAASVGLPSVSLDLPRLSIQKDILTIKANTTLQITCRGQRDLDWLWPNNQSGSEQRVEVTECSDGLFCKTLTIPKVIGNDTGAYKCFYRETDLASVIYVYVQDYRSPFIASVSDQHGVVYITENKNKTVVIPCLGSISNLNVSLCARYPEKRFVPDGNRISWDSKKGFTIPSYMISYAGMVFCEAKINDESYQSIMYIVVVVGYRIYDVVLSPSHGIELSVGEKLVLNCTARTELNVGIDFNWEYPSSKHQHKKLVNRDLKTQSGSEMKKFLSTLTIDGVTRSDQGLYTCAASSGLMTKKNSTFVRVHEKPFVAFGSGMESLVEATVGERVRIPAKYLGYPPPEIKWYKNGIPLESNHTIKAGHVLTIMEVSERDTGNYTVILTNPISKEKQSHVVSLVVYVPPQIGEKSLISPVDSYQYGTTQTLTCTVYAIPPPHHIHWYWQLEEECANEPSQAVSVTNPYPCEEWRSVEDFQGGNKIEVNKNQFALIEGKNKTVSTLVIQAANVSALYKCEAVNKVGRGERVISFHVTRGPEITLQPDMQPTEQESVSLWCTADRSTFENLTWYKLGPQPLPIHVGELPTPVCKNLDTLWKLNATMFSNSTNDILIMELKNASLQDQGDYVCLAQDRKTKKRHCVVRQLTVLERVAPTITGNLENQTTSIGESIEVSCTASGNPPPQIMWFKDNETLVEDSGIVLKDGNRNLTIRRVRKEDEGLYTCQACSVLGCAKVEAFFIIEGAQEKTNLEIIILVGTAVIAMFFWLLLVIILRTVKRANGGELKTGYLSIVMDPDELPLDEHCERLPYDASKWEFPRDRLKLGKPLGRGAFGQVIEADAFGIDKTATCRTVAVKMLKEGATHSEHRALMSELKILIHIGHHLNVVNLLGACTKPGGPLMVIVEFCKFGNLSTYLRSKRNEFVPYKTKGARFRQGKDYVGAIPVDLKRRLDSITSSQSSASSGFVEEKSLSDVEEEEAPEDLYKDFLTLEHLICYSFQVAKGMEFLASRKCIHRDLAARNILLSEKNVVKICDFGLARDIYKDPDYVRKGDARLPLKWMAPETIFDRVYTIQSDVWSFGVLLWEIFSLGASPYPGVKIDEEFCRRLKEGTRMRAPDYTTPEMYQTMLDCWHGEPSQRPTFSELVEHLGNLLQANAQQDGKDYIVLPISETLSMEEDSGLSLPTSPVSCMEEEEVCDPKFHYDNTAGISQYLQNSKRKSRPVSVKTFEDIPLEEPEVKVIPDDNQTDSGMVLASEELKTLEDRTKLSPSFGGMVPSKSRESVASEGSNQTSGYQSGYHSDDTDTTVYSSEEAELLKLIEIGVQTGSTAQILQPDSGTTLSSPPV
T1 sequence (P09874 whole entry): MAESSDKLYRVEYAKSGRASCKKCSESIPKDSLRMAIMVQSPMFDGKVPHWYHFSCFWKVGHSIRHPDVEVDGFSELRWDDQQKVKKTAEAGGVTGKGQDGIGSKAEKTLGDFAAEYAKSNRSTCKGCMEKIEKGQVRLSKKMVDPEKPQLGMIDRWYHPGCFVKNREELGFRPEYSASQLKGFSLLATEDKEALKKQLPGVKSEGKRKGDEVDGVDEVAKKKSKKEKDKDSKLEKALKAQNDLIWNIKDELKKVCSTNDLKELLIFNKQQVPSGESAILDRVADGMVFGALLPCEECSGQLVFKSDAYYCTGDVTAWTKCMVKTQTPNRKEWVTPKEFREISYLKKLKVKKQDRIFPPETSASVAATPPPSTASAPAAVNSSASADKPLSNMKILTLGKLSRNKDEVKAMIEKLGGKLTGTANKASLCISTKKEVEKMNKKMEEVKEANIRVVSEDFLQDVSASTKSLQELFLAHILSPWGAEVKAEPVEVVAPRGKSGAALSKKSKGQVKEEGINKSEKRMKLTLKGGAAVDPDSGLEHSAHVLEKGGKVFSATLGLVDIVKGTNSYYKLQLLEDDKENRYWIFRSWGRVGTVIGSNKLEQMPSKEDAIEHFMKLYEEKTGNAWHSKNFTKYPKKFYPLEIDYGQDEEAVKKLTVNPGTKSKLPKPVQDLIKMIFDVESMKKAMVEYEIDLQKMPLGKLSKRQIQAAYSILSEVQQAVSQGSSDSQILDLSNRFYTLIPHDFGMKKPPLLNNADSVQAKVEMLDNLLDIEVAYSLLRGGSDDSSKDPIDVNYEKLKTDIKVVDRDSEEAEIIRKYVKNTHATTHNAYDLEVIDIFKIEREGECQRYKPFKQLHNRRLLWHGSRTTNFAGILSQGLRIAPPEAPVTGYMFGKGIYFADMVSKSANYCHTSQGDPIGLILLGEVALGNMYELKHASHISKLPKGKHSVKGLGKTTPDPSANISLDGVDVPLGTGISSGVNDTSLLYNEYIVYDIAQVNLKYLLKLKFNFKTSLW
Mitogen-activated protein kinase kinase kinase 11, sequence (Q16584 whole entry): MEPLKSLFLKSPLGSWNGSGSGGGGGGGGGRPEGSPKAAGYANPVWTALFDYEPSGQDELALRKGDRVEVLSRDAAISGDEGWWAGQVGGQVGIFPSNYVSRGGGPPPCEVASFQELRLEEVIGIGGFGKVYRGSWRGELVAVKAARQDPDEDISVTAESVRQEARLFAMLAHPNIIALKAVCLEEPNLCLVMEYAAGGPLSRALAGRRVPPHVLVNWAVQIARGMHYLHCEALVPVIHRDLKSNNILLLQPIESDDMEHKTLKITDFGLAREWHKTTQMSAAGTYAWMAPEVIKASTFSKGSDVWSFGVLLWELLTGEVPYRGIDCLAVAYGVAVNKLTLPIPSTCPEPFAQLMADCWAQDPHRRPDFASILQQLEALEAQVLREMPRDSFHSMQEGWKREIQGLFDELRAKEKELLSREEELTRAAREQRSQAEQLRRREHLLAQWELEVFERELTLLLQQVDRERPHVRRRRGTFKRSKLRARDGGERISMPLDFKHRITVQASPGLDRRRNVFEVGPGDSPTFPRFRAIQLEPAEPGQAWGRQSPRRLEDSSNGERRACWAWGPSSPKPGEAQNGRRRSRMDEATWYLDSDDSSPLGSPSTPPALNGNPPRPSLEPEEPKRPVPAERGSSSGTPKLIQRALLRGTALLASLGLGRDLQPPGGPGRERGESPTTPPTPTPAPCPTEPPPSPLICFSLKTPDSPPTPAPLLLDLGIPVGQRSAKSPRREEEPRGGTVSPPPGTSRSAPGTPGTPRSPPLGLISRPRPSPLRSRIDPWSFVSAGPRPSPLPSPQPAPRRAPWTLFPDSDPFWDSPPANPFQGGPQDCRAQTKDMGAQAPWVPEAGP
Poly [ADP-ribose] polymerase 2, sequence (Q9UGN5 whole entry): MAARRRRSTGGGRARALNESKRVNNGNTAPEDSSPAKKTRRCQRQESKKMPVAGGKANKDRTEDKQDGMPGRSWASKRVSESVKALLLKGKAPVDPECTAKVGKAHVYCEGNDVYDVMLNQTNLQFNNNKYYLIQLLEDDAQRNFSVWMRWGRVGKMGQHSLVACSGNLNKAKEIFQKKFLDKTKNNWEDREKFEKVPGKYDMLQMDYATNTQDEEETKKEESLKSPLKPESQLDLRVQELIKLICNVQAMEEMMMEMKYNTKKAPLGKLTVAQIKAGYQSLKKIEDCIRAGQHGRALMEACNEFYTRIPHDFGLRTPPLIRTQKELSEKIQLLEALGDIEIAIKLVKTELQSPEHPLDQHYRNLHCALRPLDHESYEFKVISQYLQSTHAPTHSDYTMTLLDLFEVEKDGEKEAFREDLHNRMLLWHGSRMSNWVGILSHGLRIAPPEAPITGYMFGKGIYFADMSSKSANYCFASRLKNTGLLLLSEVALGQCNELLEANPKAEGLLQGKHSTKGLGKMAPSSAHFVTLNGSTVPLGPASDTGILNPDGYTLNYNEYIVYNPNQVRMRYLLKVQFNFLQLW
Macrophage colony-stimulating factor 1 receptor, sequence (P07333 whole entry): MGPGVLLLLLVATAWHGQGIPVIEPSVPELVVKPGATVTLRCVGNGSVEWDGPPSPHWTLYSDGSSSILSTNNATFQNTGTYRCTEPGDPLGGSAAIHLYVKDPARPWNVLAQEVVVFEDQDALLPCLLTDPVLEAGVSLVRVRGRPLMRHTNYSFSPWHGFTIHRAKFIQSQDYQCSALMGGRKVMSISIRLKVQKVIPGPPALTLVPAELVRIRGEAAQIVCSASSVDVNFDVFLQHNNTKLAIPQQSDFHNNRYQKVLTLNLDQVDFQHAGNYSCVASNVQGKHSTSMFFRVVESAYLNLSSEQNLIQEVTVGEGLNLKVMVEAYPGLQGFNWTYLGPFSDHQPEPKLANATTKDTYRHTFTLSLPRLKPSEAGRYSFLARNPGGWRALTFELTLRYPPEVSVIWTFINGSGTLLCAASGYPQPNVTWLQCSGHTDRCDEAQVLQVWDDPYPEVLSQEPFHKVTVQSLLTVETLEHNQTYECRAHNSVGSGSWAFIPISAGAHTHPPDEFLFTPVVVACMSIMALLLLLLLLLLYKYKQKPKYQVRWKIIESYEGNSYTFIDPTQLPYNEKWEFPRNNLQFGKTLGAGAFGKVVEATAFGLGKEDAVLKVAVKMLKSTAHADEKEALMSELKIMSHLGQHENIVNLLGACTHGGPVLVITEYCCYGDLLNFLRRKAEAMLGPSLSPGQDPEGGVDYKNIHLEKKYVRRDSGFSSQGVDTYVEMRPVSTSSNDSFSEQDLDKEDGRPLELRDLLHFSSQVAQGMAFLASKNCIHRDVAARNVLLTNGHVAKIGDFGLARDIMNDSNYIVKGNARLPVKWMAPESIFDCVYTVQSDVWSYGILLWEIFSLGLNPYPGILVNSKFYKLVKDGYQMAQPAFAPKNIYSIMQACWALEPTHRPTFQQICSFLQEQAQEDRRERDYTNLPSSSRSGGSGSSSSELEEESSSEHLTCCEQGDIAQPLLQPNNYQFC
Serine/threonine-protein kinase 16, sequence (O75716 whole entry): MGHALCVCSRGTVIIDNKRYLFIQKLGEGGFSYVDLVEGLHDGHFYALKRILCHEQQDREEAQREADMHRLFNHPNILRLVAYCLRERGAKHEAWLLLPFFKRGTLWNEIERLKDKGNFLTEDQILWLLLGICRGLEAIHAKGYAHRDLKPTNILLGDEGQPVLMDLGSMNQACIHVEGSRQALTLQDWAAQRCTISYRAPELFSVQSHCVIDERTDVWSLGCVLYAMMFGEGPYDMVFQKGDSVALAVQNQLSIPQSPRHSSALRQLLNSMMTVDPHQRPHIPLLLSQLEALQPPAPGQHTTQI

SMILES: Cc1c2ccc(N(C)c3ccnc(Nc4cccc(-c5nc6cc(F)c(F)cc6[nH]5)c4)n3)cc2nn1C
- IC50 [1]: 190 nM
- IC50 (MDA-MB-231 [2]): 2300 nM
- IC50 [3]: 647 nM
- IC50 (MCF7 [4]): 7200 nM

SMILES: O=C(c1cc(Cc2n[nH]c(=O)c3ccccc23)ccc1F)N1CCN(C(=O)C2CC2)CC1 [OLAPARIB]
- IC50 (MDA-MB-436 [5]): 9000 nM
- IC50 (MDA-MB-231 [6]): > 10000 nM
- IC50 (MCF7 [7]): > 10000 nM
- IC50 (MDA-MB-231 [2]): > 10000 nM
- IC50 (HUVEC): 4600 nM
- IC50 (MDA-MB-436 [8]): > 10000 nM
- IC50 (HCC1937 [9]): > 10000 nM
- IC50 (HCC1937 [10]): 6510 nM
- IC50 (MCF7 [4]): > 10000 nM
- inhibition [11]: Active

SMILES: CN(c1ccc(N2CCOCC2)cc1)c1ccnc(Nc2ccc(-c3nc4c(C(N)=O)cccc4[nH]3)cc2)n1
- IC50 [1]: > 10000 nM
- IC50 (MDA-MB-231 [2]): 9720 nM
- IC50 [3]: 87 nM
- IC50 (MCF7 [4]): 8930 nM

SMILES: NC(=O)c1cccc2[nH]c(-c3ccc(Nc4nccc(N5CCN(C(=O)c6ccccc6)CC5)n4)cc3)nc12
- IC50 [1]: > 10000 nM
- IC50 (MDA-MB-231 [2]): > 10000 nM
- IC50 [3]: 128 nM
- IC50 (MCF7 [4]): > 10000 nM

SMILES: Cc1c2ccc(N(C)c3ccnc(Nc4ccc(-c5nc6ccccc6[nH]5)c(C(F)(F)F)c4)n3)cc2nn1C
- IC50 [1]: 213 nM
- IC50 (MDA-MB-231 [2]): > 10000 nM
- IC50 [3]: > 10000 nM
- IC50 (MCF7 [4]): > 10000 nM

SMILES: Cc1ccc(Nc2nccc(N(C)c3ccc4c(C)n(C)nc4c3)n2)cc1-c1nc2c(C(N)=O)cccc2[nH]1
- clearance [12]: 20.9 mL/min/kg
- IC50 [13]: 148 nM
- half-life [14]: 1 h
- AUC(0-t) [15]: 815 ng·h/mL
- Activity [16]: Non-Toxic
- IC50 [17]: 78.4 nM
- Activity [18]: Non-Toxic
- IC50 [19]: 689 nM
- IC50 [20]: 347 nM
- IC50 [21]: 299 nM
- Activity [22]: Non-Toxic
- Activity [23]: Non-Toxic
- bioavailability [24]: 60.1%
- AUC(0-t) [25]: 4900 ng·h/mL
- IC50 [26]: 499 nM
- Activity [27]: Non-Toxic
- Vd [28]: 2.2 L/kg
- Cmax [29]: 482 ng/mL
- half-life [30]: 1.2 h
- Cmax [31]: 2430 ng/mL
- IC50 [32]: 166 nM
- Activity [33]: Non-Toxic
- AUC(0-inf) [34]: 821 ng·h/mL
- AUC(0-inf) [35]: 4920 ng·h/mL

The next lines start with the values.

- IC50 [1]: > 10000 nM
- IC50 (MDA-MB-231 [2]): > 10000 nM
- IC50 [3]: 79.6 nM
- IC50 (MCF7 [4]): > 10000 nM
SMILES: COc1cc(N(C)c2ccc3c(C)n(C)nc3c2)nc(Nc2ccc(-c3nc4c(C(N)=O)cccc4[nH]3)cc2)n1

- IC50 [1]: 235 nM
- IC50 (MDA-MB-231 [2]): 8910 nM
- IC50 [3]: 150 nM
- IC50 (MCF7 [4]): > 10000 nM
SMILES: Cc1cc(Nc2nccc(N(C)c3ccc4c(C)n(C)nc4c3)n2)cnc1-c1nc2c(C(N)=O)cccc2[nH]1

- IC50 [1]: > 10000 nM
- IC50 (MDA-MB-231 [2]): > 10000 nM
- IC50 [3]: 85.2 nM
- IC50 (MCF7 [4]): > 10000 nM
SMILES: Cc1cc(N(C)c2ccc3c(C)n(C)nc3c2)nc(Nc2ccc(-c3nc4c(C(N)=O)cccc4[nH]3)cc2)n1

- IC50 [1]: 266 nM
- IC50 (MDA-MB-231 [2]): > 10000 nM
- IC50 [3]: 39.4 nM
- IC50 (MCF7 [4]): > 10000 nM
SMILES: COc1ccc(-c2nc3c(C(N)=O)cccc3[nH]2)cc1Nc1nccc(N(C)c2ccc3c(C)n(C)nc3c2)n1

- IC50 [1]: 728 nM
- IC50 (MDA-MB-231 [2]): > 10000 nM
- IC50 [3]: > 10000 nM
- IC50 (MCF7 [4]): > 10000 nM
SMILES: CN(c1ccc(N2CCOCC2)c(F)c1)c1ccnc(Nc2ccc(C(=O)Nc3nc4ccccc4[nH]3)cc2)n1

- IC50 [1]: 188 nM
- IC50 (MDA-MB-231 [2]): > 10000 nM
- IC50 [3]: > 10000 nM
- IC50 (MCF7 [4]): > 10000 nM
SMILES: Cc1c2ccc(N(C)c3ccnc(Nc4ccc(-c5nc6ccccc6[nH]5)c(Cl)c4)n3)cc2nn1C

- IC50 [1]: 254 nM
- IC50 (MDA-MB-231 [2]): 9340 nM
- IC50 [3]: 118 nM
- IC50 (MCF7 [4]): > 10000 nM
SMILES: Cc1c2ccc(N(C)c3ccnc(Nc4ccc(-c5nc6c(C(N)=O)cccc6[nH]5)cc4F)n3)cc2nn1C

- IC50 [1]: 427 nM
- IC50 (MDA-MB-231 [2]): > 10000 nM
- IC50 [3]: 661 nM
- IC50 (MCF7 [4]): > 10000 nM
SMILES: CN(c1ccc(Cl)cc1)c1ccnc(Nc2ccc(-c3nc4cc(F)c(F)cc4[nH]3)cc2)n1
